Experiment [1] relates to mosquitoes. The experiment is described as follows: topical toxicity to mosquitoes (species not specified). The format is in vivo. The settings on record: dose of 10 μg per mg; within 24 h.
The target in experiment [2] is AeKir1 (Aedes aegypti, UniProt L0EQS9). The experiment is described as follows: thallium (Tl+) flux assay. Format: cell-based. The settings on record: means (n = 3); read-out: IC50 μM (95% Cl).
Experiment [3] addresses Kir1.1 (Homo sapiens (Human), UniProt P48048). The experiment is described as follows: thallium (Tl+) flux assay. Format: cell-based, mammalian.
Experiment [4] concerns the target hKir2.1 (Homo sapiens (Human), UniProt P63252). As to the kind of experiment: thallium (Tl+) flux assay. The format is cell-based.
In experiment [5] the target is Kir4.1 (Homo sapiens (Human), UniProt P78508). As to the kind of experiment: thallium (Tl+) flux assay. Format: cell-based, mammalian. The settings on record: means (n = 3); read-out: IC50 μM (95% Cl). Here is the method: (§1) The thallium flux assay is an in vitro method of measuring conductance through a potassium ion channel. Potassium channels are also permeable to thallium ions. The modulation of a K^+ channel will thus increase or decrease thallium ion flow through the channel and thus, alter the observed fluorescence of a thallium-specific indicator dye.
(§2) Stably transfected T-Rex-HEK-293-AnKir1 cells were cultured overnight in 384-well plates in media containing DMEM, 10% dialyzed FBS, and 1 μg/mL tetracycline to induce channel expression. The next day the cell culture medium was replaced with a dye-loading solution containing assay buffer (Hanks Balanced Salt Solution with 20 mM HEPES, pH 7.3), 0.01% (w/v) Pluronic F-127 (Life Technologies, Carlsbad, Calif.), and 1.2 μM of the thallium-sensitive dye Thallos-AM (TEFlabs, Austin, Tex.). After 1 hr incubation at room temperature, the dye-loading solution was washed from the plates and replaced with 20 μL/well of assay buffer. […] To ensure the small-molecule vehicle DMSO had no direct effect on AnKir1-dependent Tl^+ flux, the assay's tolerance to different doses of DMSO was evaluated. The robustness and reproducibility of the assay was determined by comparing Tl^+ flux through tetracycline-induced and tetracycline-free cells. The Z′ value was calculated as:
(§3) Z′=1−(3SDp+3SDn)/|meanp+meann| where SD is standard deviation, and p and n are control and uninduced flux values, respectively. […] Half-inhibition concentration (IC50) values were calculated from fits using a four parameter logistic equation. […]
(§4) Tl^+ flux data were analyzed using Excel (Microsoft Corp, Redmond, Wash.) with XLfit add-in (IDBS, Guildford, Surrey, UK), OriginPro (Origin Lab, Northampton, Mass.), and GraphPad Prism (GraphPad Software, San Diego, Calif., USA) software. […] The slope of the fluorescence increase beginning 5 s after Tl^+ addition and ending 15 s after Tl^+ addition was calculated.

The target of experiment [6] is Kir6.2/SUR1 (Homo sapiens (Human), UniProt Q09428+Q14654). The experiment is described as follows: thallium (Tl+) flux assay. The format is cell-based, mammalian. Here is the method: as §1, §2, §3, §4
The target in experiment [7] is Kir7.1 (Homo sapiens (Human), UniProt O60928). As to the kind of experiment: thallium (Tl+) flux assay. The format is cell-based, mammalian.
Experiment [8] concerns An. gambiae. The experiment is described as follows: mosquito fecundity, eggs laid. The format is in vivo, Anopheles gambiae. The note with it: 72 h post blood feeding; VU041 ~1 μg/mg, VU937 ~10 μg/mg. Here is the method:
Briefly, adult female mosquitoes were given access to an anesthetized mouse for 60 min. […] After treatment, individual female mosquitoes were transferred to Drosophila vials (Fisher Scientific, Pittsburgh, OA) containing 2 mL of water. The total number of eggs was counted 72 hours after each mosquito was transferred into a vial. Any mosquitoes that died during this 72-hour period were excluded from the analysis. All assays were performed in an environmental chamber that was maintained at 27° C. and 75% relative humidity; mosquitoes were given access to 10% sucrose solution ad libitum. At least 25 female mosquitoes were used per replicate for each treatment group; each treatment was repeated on three separate broods, giving a total number of individuals from 75-113 for each group.

Setting [9] is: means (n = 3), read-out: IC50 μM (95% Cl).

Molecules are shown by their SMILES. Where two headings read alike, the source gives them in different places.

Kir7.1, sequence (O60928 whole entry): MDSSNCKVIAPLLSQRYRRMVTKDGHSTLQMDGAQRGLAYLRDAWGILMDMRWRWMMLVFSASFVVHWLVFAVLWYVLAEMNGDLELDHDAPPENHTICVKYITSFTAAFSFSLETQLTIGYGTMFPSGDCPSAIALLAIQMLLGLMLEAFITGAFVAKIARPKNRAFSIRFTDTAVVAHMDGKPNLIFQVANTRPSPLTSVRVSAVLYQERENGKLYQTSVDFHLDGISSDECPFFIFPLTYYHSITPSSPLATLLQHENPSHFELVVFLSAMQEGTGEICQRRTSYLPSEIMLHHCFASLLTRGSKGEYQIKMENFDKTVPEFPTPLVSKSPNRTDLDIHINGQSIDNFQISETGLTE
Kir6.2/SUR1, sequence (Q14654 whole entry): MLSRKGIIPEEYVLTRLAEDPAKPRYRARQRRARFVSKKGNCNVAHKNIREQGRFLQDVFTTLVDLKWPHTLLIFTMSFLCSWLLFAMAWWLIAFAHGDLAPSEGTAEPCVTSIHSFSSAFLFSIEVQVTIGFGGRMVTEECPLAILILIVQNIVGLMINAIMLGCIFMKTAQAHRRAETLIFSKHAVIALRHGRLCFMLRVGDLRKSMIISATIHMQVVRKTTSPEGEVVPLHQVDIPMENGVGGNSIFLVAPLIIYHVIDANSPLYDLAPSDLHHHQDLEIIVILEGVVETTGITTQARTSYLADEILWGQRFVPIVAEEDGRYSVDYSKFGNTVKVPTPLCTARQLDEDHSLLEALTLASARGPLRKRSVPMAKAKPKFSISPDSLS
Kir6.2/SUR1, sequence (Q09428 whole entry): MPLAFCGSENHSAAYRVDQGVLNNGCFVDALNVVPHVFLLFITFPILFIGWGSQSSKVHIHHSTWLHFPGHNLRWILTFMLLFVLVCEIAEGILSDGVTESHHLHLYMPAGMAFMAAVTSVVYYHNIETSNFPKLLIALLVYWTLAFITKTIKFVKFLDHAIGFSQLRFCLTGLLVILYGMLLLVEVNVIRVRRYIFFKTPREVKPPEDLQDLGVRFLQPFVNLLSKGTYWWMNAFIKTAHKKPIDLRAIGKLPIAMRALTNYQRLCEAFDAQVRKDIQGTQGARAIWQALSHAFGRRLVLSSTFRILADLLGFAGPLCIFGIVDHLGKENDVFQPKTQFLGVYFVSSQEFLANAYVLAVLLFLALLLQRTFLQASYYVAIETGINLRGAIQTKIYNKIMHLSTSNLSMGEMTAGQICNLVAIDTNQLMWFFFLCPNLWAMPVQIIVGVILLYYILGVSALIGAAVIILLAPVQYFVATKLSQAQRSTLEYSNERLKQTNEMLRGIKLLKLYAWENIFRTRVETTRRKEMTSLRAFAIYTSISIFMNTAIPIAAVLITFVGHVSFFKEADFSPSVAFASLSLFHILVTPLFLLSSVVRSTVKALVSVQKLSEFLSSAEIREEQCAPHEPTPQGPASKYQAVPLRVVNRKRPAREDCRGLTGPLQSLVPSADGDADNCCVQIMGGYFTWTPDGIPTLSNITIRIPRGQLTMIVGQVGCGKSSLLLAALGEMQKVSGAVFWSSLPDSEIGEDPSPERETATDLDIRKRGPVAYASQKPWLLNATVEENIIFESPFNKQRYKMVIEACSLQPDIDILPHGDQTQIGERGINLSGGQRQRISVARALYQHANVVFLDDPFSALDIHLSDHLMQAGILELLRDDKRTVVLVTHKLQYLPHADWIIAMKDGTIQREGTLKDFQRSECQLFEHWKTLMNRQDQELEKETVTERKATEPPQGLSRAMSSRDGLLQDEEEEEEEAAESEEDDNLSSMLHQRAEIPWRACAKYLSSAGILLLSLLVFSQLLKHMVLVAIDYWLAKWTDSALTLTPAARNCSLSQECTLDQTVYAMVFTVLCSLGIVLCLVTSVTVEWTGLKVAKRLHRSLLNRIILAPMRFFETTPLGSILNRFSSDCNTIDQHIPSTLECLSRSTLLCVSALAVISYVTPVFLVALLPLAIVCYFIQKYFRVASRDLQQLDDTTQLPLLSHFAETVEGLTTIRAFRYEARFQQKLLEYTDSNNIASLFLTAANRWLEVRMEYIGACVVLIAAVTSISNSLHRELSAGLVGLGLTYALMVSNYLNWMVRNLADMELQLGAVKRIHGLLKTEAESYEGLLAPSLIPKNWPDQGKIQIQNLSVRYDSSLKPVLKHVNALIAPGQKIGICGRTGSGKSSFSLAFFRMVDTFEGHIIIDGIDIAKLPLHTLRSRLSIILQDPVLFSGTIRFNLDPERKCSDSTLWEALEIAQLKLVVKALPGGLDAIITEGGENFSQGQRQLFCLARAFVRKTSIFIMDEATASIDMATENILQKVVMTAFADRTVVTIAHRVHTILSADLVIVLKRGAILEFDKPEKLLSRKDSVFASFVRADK
Kir1.1, sequence (P48048 whole entry): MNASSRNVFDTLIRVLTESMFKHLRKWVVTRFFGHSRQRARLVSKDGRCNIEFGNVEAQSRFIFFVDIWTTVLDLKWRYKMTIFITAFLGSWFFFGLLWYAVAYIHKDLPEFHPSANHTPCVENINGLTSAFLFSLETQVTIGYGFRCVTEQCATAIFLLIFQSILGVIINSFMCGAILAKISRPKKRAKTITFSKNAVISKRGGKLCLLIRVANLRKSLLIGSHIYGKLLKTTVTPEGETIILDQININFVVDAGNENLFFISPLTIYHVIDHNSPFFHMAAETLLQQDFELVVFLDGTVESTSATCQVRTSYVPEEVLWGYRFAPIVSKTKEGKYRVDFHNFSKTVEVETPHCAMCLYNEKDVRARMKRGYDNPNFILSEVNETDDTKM
hKir2.1, sequence (P63252 whole entry): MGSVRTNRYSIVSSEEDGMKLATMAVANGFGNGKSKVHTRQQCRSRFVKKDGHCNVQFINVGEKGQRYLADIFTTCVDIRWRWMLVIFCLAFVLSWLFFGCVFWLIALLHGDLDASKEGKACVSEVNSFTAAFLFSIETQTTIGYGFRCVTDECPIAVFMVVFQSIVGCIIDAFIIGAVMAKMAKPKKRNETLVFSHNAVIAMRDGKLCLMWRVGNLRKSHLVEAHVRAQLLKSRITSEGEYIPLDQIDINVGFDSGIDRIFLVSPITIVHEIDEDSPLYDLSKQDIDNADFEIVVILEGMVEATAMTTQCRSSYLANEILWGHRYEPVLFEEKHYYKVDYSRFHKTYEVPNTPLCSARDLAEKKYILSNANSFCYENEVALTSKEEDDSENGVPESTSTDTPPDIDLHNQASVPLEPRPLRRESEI
AeKir1, sequence (L0EQS9 1-486): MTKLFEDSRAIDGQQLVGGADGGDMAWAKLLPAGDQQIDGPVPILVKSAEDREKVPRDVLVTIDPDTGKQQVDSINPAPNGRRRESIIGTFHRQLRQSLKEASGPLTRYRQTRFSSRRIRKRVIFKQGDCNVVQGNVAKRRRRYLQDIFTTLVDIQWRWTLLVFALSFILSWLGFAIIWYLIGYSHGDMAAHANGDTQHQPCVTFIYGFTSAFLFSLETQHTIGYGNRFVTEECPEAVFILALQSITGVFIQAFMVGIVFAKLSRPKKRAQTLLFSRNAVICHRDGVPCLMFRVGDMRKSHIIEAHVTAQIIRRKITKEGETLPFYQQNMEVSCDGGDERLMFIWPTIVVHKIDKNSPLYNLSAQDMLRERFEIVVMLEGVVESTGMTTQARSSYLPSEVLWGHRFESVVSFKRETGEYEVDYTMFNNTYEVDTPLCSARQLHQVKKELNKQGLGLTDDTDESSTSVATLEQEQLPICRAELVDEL
Kir4.1, sequence (P78508 whole entry): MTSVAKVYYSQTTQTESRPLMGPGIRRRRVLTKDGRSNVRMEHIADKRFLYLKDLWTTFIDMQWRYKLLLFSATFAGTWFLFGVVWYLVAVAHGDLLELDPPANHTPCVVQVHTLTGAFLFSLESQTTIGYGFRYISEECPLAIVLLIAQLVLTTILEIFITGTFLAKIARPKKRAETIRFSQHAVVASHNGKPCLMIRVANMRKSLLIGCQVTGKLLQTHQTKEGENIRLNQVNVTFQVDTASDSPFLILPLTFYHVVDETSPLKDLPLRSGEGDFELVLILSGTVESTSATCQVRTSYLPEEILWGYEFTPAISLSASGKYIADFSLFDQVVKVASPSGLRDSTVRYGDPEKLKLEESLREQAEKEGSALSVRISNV

As usually defined, the IC50 is the point on the concentration scale where inhibition reaches its midpoint. As usually defined, the inhibition is the share of the control response that was lost under treatment. Take `O=C(Cn1nc(C(F)(F)F)c2c1CCCC2)N1CCCc2ccccc21` [VU041, 1-(3,4-dihydroquinolin-1(2H)-yl)-2-(3-(trifluoromethyl)-4,5,6,7-tetrahydro-1H-indazol-1-yl)ethan-1-one]: the lethality against mosquitoes in experiment [1] was approximately 100%. The IC50 in experiment [2] was 1.7 µM; in experiment [3] (setting [9]), more than 30 µM; in experiment [4] (SAR libraries, read-out: hKir2.1 IC50), 11.3 µM; in experiment [4] (means (n = 3), selectivity panel, read-out: IC50 μM (95% Cl)) it was 12.7 µM; in experiment [5], more than 30 µM; in experiment [6] (setting [9]), more than 30 µM. Moreover, in experiment [7] (setting [9]), the 50% inhibitory concentration (IC50) was more than 30 µM. Further, the inhibition at 30 µM in experiment [3] (concentration of 30 μM), in experiment [6] (concentration of 30 μM) and in experiment [7] (concentration of 30 μM) was less than 10% in each case. For the same compound, in experiment [8], the “median number of eggs laid per mosquito” value is “significantly lower median number of eggs per mosquito”.

(Values after US11632953B2, “Method for controlling hematophagous or sap-feeding arthropods” (Board of Supervisors of Louisiana State University and …, priority 2016, dated 2023).)
